{
  "source": "paper PMC10893492",
  "about": "“Anticancer Evaluation of Novel Benzofuran–Indole Hybrids as Epidermal Growth Factor Receptor Inhibitors against Non-Small-Cell Lung Cancer Cells” (Pharmaceuticals, 2024)",
  "target": "epidermal growth factor receptor (EGFR) (Homo sapiens, UniProt P00533)",
  "sequence (P00533 25-1210)": "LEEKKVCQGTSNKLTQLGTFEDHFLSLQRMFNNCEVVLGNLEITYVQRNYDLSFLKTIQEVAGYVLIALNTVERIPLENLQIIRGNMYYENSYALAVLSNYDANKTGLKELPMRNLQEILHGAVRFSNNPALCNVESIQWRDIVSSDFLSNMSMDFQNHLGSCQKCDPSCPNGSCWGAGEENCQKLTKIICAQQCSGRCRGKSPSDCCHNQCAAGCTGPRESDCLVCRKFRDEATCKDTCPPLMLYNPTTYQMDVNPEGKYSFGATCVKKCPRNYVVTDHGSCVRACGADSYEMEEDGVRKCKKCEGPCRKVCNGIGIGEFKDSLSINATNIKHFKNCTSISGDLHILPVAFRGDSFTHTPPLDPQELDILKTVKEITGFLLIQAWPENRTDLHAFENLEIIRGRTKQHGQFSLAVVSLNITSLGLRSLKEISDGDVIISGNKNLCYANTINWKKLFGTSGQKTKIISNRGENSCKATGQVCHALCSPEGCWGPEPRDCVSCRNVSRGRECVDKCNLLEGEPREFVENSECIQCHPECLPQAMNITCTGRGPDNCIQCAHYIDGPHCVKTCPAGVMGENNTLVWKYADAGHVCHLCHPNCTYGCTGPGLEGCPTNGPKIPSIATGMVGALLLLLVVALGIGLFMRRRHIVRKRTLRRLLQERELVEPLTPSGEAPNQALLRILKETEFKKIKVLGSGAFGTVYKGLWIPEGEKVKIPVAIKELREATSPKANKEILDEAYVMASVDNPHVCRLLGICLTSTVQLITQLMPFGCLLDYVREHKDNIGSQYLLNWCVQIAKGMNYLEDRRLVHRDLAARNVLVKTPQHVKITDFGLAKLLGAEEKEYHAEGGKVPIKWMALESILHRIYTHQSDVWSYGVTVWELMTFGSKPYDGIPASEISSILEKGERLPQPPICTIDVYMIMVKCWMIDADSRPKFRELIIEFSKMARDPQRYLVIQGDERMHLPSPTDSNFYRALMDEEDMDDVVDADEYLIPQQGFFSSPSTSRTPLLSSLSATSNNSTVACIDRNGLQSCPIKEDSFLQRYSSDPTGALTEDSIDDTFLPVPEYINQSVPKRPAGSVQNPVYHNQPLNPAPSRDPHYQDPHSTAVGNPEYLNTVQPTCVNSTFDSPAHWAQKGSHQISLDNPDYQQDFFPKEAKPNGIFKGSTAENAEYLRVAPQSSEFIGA",
  "experiment": "EGFR kinase assay kit (BPS Bioscience) with Kinase-Glo Max luminescence",
  "type": "biochemical",
  "data": [
    {"smiles": "COc1cc2oc(-c3ccccc3)c(-c3c[nH]c4ccc(Br)cc34)c2cc1OC", "note": "[8aa, 5-Bromo-3-(5,6-dimethoxy-2-phenylbenzofuran-3-yl)-1H-indole]", "values": [
      {"measurement": "IC50", "value": "440 ± 20", "unit": "nM"}
    ]}
  ]
}
